Laboratory results: patent publication US20170231177A1, “REGENERATION AND TRANSFORMATION OF COSMOS BIPINNATUS PLANTLETS” (Novin Giti Gene R&D Center (N.G.G), priority 2015, published 2017)

Assays:
[1] = system: cotyledon explants of Cosmos Bipinnatus; test: Shoot number of regenerated cotyledon explants on regeneration media; type: cell-based
Experimental: (§1) In this example, direct regeneration of Cosmos Bipinnatus plantlets was carried out with the following steps according to one or more aspects of the present disclosure. First, Cosmos Bipinnatus seeds were sterilized. The sterilization of Cosmos Bipinnatus seeds was carried out by soaking the seeds in an ethanol solution with a concentration of about 70% volume/volume for about 1 min followed by soaking the seeds in a hypochlorite sodium solution with a concentration of about 2% weight/volume for about 10 min, and then the seeds were rinsed three times with sterile distilled water.
(§2) The sterilized Cosmos Bipinnatus seeds were then germinated in order to obtain cotyledons of Cosmos Bipinnatus plant. Seed germination was carried out by putting the sterilized Cosmos Bipinnatus seeds under a sterile condition in an agar-solidified MS medium. Then, the sterilized Cosmos Bipinnatus seeds in the agar-solidified MS medium were incubated in a growth chamber with photoperiods of 16 hours in light and 8 hours in dark under fluorescent illuminations (60 μmol m^2 s^1) at 22° C.±1° C. for a period of 3 days. The cotyledons of Cosmos Bipinnatus plant that grew from germinated seeds after 3 days were cut and used as explants in the following steps of the direct regeneration process.
(§3) The obtained explants were then cultured onto a regeneration medium for regenerating cotyledon explants of Cosmos Bipinnatus. To this end, 10 explants, with their adaxial side down, were cultured onto the regeneration medium in a Petri dish for regeneration in cotyledons to occur. The regeneration in cotyledons was assessed by examining shoot-inducing ability in the presence of different regeneration medium compositions. The different regeneration medium compositions included respectively different concentrations of plant growth regulators and ethylene inhibitors. The regeneration media contained benzyl adenine (BA), silver nitrate, and adenine sulfate with different concentrations. An MS medium supplemented with 3% sucrose was used as a basal medium and the pH was adjusted to about 5.8 using a 1 N solution of NaOH.
As used herein, “shoot number” is the average number of shoots that are generated on the 10 explants used in the experiments for three replications.

[2] = system: cotyledon explants of Cosmos Bipinnatus; test: Regeneration frequency of cotyledon explants on regeneration media; type: cell-based
Experimental: as §1, §2
as §3, with “An MS medium supplemented with 3% sucrose was used as a basal medium and the pH was adjusted to about 5.8 using a 1 N solution of NaOH.” left out

[3] = BA 2.5, AgNO3 0, adenine sulfate 0 mg/l in MS medium
[4] = BA 5, AgNO3 0, adenine sulfate 0 mg/l in MS medium
[5] = BA 7.5, AgNO3 0, adenine sulfate 0 mg/l in MS medium

## Nc1ncnc2nc[nH]c12.O=S(=O)(O)O [Adenine sulfate, adenine sulfate]
[1]; BA 0, AgNO3 0, adenine sulfate 10 mg/l in MS medium
  Shoot number: 0.00 ± 0.00
[1]; BA 0, AgNO3 0, adenine sulfate 20 mg/l in MS medium
  Shoot number: 0.00 ± 0.00
[1]; BA 0, AgNO3 0, adenine sulfate 40 mg/l in MS medium
  Shoot number: 0.00 ± 0.00
[1]; BA 0, AgNO3 0, adenine sulfate 80 mg/l in MS medium
  Shoot number: 0.00 ± 0.00

## O=[N+]([O-])[O-].[Ag+] [AgNO3, silver nitrate]
[1]; BA 0, AgNO3 2.5, adenine sulfate 0 mg/l in MS medium
  Shoot number: 0.00 ± 0.00
[1]; BA 0, AgNO3 5, adenine sulfate 0 mg/l in MS medium
  Shoot number: 0.00 ± 0.00
[1]; BA 0, AgNO3 7.5, adenine sulfate 0 mg/l in MS medium
  Shoot number: 0.00 ± 0.00

## c1ccc(CNc2ncnc3nc[nH]c23)cc1 [BA, benzyladenine]
[2]; [3]
  Regeneration frequency: 6.25 ± 0.00%
[2]; [4]
  Regeneration frequency: 6.25 ± 1.70%
[2]; [5]
  Regeneration frequency: 5.25 ± 2.06%
[1]; [3]
  Shoot number: 1.34 ± 0.33
[1]; [4]
  Shoot number: 0.34 ± 0.28
[1]; [5]
  Shoot number: 0.67 ± 0.33
